Laboratory results reported in PMC4976923, “Potent Allosteric Dengue Virus NS5 Polymerase Inhibitors: Mechanism of Action and Resistance Profiling” (PLoS Pathogens, 2016).

Experiments:
DENV2 FL NS5 = target: T1, DENV2 FL NS5 (Dengue virus type 2, UniProt P14340); experiment: DENV2 FL NS5 de novo initiation FAPA assay; type: biochemical; conditions: one experiment; read-out: DENV FL NS5 de novo initiation FAPA, IC50, DENV2
T1 construct: made in house
Description: DENV1-4 FL NS5 dnI assays were performed as described previously. Briefly, compounds from 0–20 or -100 μM concentrations are two-fold serially diluted into 384-well black opaque plates (Corning Costar), after which 100 nM DENV FL NS5 protein was added and the plates incubated at RT for 20 min. RNA and ATTO-CTP, ATP, GTP and UTP were then added and the plates incubated for another 120 min. […] For order-of-addition experiments, DENV4 FL NS5 was incubated for one hour at RT with RNA, ATP, and GTP or RNA, ATP, GTP and ATTO-CTP, followed by exposure to serially diluted compounds for 20 min at RT. The missing components (ATTO-CTP and UTP or UTP alone) were added and the reactions continued for 120 min after which STOP buffer was added as before. All datapoints were performed in duplicate wells. Each compound was tested at least twice.
2 Co mpound testing with DENV dn I FAPA assays. Final dn I assa y reaction mixtures
3 contained 100 nM DENV 5 ´UTR-L-3´UTR IVT RNA, 20 µ M ATP, 20 µM GTP, 20 µM
4 UTP, 5 µM ATTO -CTP, and 100 nM of DENV FL NS5 protein in 15 µl in assa y buffer
5 comprising 50 mM Tris/ HCl, pH 7.5, 10 mM KCl, 1 mM MgCl2, 0.3 mM MnCl2 (DENV2
6 and 4) or 1 mM MnCl 2 (DENV1 and 3), 0.001% Triton- X-100 and 10 µ M cystein e [ 1] . To
7 perform dose-respons e inhibition measurements, compounds from 0- 20 or - 100 µM
8 concentr ations are two -fold seriall y diluted into 384-well black opaqu e plat es (Corning
9 Costar), after which 100 nM DENV FL NS5 protein was added into resp ect ive wells. The
10 plates wer e sealed, b riefl y shak en and centrif uged at 1500 rpm for 30 sec and incubated at RT
11 for 15 min. Thereafter,RNA and ATTO -CTP, ATP, GTP and UTP were added to the wells to
12 start the reactions. The pl ates wer e re-seal ed, shaken and centrifuged as before, followed b y
13 incubation RT for 120 min.
15 intestinal phosphatase (CIP), re- incubation at RT for 60 min and read on a Tecan Safire II
16 microplate reader. For o r der-of-addition experiments, DENV4 FL NS5 was incubated for one
17 hour at RT with RNA, ATP, and GTP or RNA, ATP, GTP and ATTO-CTP, followed by
18 exposure to seriall y dilut ed compounds for 20 mi n at RT. The missing components (ATTO-
19 CTP and UTP or UTP alone) were added and the reactions continued for 120 min after which
20 STOP buffer was added as before. All datapoints were performed in duplicate wells. Each
21 compound was tested at l east twice.
23 Compound testing in DENV1-4 infected cells by high content imaging. Approximatel y 7
24 × 10^3 A549 cells per well were s eeded into 384-well plates in Ham’s F-12K medium

[1] = target: T2, FL NS5 from BHK-21 DENV2-NGC replicon cell lysate (Dengue virus type 2, UniProt P14340); experiment: Cellular thermal shift assay with replicon cell lysate; type: binding; conditions: +50 μM compound; DMSO control 42.5
T2 construct: FL NS5 from DENV-replicon lysates; expressed in transfected cells; host or cells: BHK-21 cells carrying a DENV2 (New Guinea C) sub-genomic replicon
Source text: 1 Fig. 4.Ph ylo genetic tr ee repres enting relatedn ess of N-pocket amino acid residues from
2 different members of the Flavivirus famil y, derived from Clustal Omega program [ 8] .
6 Fi g .5. Ef fects of N -pocket compounds on DENV pol ymerase thermo-stability. Melting
7 temperatur e (Tm) w as ass essed b y thermo-d enatur ation in presence of the S YPRO Oran ge
8 dye as described in Materials and Methods. (A-F) Representative meltin g curves of DEN V4
10 inhibitors or 5 % DMSO control. (G) Cellular thermal shifts assays [ 9] wer e perfo rmed with
Bri efl y, l ysates w er e
12 incubated with compounds or 5 % DMSO for 1 hr at 4 °C, followed b y heating at 30- 70 °C.
13 Samples were spun and the supernat ants loaded onto 12 % SDS -PAGE gel s , followed b y gel
14 electrophoresis and west ern blotting with anti- DE NV2 NS5 antibody (GeneTex, USA). Table
16 controls treated with DMSO.
(1 picture or pasted object on this page, not shown here)

DENV4 FL NS5 Q802N = target: T3, DENV4 FL NS5 Q802N (Dengue virus type 4, UniProt P09866, Q3290N); type: binding; conditions: 50 µM compound; for Protein melting temperature, Tm, DENV4 FL NS5 Q802N: DMSO 37
T3 construct: made in house
T3 sequence (P09866 2488-3387 Q3290N): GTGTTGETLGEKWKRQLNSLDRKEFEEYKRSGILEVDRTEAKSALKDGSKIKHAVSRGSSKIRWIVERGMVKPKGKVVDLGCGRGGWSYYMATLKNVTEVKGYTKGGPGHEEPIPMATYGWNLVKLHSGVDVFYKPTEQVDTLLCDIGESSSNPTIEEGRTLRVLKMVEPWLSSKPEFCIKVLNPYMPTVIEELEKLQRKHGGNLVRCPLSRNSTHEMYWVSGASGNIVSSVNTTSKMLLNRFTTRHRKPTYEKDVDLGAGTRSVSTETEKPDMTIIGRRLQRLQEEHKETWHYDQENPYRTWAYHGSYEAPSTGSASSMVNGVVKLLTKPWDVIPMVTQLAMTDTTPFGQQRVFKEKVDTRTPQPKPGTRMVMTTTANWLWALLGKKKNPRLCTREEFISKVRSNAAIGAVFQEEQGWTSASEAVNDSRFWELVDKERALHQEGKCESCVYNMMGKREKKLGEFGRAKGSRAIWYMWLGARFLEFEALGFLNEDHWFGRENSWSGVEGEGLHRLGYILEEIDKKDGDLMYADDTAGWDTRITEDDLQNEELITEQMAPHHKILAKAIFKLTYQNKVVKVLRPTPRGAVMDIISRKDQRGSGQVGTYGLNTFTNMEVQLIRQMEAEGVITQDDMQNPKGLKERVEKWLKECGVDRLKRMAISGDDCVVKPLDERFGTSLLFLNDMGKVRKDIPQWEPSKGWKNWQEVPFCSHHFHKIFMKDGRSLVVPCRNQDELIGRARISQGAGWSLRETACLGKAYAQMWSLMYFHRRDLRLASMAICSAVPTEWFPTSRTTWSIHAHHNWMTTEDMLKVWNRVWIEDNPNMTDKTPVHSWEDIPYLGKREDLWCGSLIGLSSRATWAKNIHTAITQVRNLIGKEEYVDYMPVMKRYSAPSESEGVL

DENV4 FL NS5 = target: T4, DENV4 FL NS5 (Dengue virus type 4, UniProt P09866); type: biochemical
T4 construct: 100 nM DENV FL NS5 protein was added; made in house
T4 sequence (P09866 2488-3387): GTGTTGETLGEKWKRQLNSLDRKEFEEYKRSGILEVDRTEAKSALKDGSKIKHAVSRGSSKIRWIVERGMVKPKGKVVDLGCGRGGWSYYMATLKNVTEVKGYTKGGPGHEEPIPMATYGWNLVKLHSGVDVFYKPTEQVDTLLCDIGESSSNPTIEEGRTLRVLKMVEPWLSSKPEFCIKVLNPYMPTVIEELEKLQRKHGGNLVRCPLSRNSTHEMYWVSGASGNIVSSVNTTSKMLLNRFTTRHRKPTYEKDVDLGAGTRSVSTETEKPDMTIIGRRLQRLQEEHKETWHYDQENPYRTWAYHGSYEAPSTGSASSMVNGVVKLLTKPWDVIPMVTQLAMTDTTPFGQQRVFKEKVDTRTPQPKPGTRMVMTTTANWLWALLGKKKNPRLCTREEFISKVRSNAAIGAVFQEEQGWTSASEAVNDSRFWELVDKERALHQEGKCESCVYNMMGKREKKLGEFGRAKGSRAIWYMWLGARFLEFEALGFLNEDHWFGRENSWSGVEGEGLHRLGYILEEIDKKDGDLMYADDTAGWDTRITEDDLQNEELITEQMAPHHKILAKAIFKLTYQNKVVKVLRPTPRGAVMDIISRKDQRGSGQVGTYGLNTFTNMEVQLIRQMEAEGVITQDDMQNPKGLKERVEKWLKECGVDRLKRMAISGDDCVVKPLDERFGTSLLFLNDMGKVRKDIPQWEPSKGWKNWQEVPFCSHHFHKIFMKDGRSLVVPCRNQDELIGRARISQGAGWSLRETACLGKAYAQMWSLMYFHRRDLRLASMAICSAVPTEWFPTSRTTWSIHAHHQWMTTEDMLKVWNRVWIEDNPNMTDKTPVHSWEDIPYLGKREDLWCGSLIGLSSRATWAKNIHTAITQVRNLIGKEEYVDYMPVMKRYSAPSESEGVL

[2] = test system: DENV2-NGC virus Wild Type; experiment: WT DENV2-NGC virus in A549 cells, plaque assay; conditions: Dengue virus, DENV2, A549, 48 h, read-out: EC50, DENV2-NGC Virus, Wild Type
Description: 8 Plaque assay. Virus stock was produced b y harvesting the supernatant of DENV2 full -length
9 RNA- transf ected BHK -21 cells at 24, 48, 72, 96, and 120 hours post transfection. Virus titer
10 and morphology were determined by st andard plaque assa y. Briefl y, a seri es of 10 -fold
11 dilutions was prepared by first diluting 50 µl virus stock with 450 µl RPMI 1640 m edia
12 containing 2 % FBS to obtain 10-1 dilution and then further diluted until a final 10 -6 dilution
13 was achieved. Confluent BHK-21 cells (1 × 10^5 cells per well, plated 2 da ys in advance)
14 grown in 24-well plate was added with 200 µl of each dilution per well. Duplicates were
15 prepared for each time point and dilution factor. The infection was allowed to proceed at
16 30°C for 1 hour, followed by removing the m edia and adding 500 µl 0.8% methyl-cellulose
17 overla y (containing RPM I, 2 % FBS, 1 % P/S, 0.05 % NaHCO 3, 25 mM Na Hepes, and
18 0.5 % DMSO) into each well. The plates were incubated for 5 da ys at 37 °C in 5 % CO 2
19 before fixing in 3.7 % formaldehyde and staining with 1 % cr ystal violet. The viral titer was
20 calculated as plaque- forming unit (PFU) per ml.

HuH-7 = experiment: in vitro; type: cell-based; conditions: HuH-7 (DENV2 replicon cells); 48 hr; ATP levels
Description: A549, BHK-21 and Huh7 cells bearing stable DENV2 sub-genomic replicon or transiently electroporated DENV2-NGC replicon or infectious virus cDNAs were seeded into 384-well microplate (3,000 cells per well). After over-night incubation at 37°C with 5% CO2, the cells were treated with 2-fold serially diluted compounds, starting from 20 or 50 μM. At 48 hr of post-incubation, renilla luciferase activities were measured with the ViviRen live-cell substrate (Promega, USA) according to the manufacturer’s protocol. CellTiter-Glo reagent (Promega, USA) was then added to determine cytotoxic effects of compounds. For the HCV replicon assay, Huh-7.5 cells harboring the HCV replicon were seeded into a 96-well microplate (20,000 cells per well). At 48 hr after compound treatment, cells were assayed for firefly luciferase activity by using a Bright-Glo luciferase assay (Promega, USA). NITD-008, a nucleoside inhibitor of DENV and HCV was added as a control.

[3] = test system: clinical isolates of DENV1-4; conditions: across four serotypes; cited from earlier work

| Structure (SMILES) | IC50 (DENV2 FL NS5) | Protein melting temperature Tm with compound, FL NS5 from BHK-21 DENV2-NGC replicon cell lysate [1] | Tm change compared to DMSO control, DENV4 FL NS5 Q802N (DENV4 FL NS5 Q802N) | Protein melting temperature, Tm, DENV4 FL NS5 Q802N (DENV4 FL NS5 Q802N) | mode of inhibition with respect to viral RNA substrate (DENV4 FL NS5; Lineweaver-Burk plots, 0–500 nM RNA) | mode of inhibition with respect to GTP (DENV4 FL NS5; Lineweaver-Burk plots, 0–50 μM GTP) | mode of inhibition at high GTP concentrations (DENV4 FL NS5; high GTP concentrations) | EC50 [2] | CC50 (HuH-7) | EC50 [3] |
| --- | --- | --- | --- | --- | --- | --- | --- | --- | --- | --- |
| COc1cccc(S(=O)(=O)NC(=O)c2cc(-c3ccc(C#CCO)s3)c(OC)cc2C)c1 [Compound 26i] | 86 nM |  |  |  |  |  |  |  |  |  |
| COc1cc(OC)c(-c2ccc(C#CCO)s2)cc1C(=O)NS(=O)(=O)c1cccc2cccnc12 [Compound 29] |  | 50 °C | 1.5 °C | 38.5 °C | uncompetitive | uncompetitive inhibition | non-competitive mode of inhibition | 1110 nM |  |  |
| COc1cccc(S(=O)(=O)NC(=O)c2cc(-c3ccc(C#CCO)s3)c(OC)cc2OC)c1 [Compound 27] |  | 47.5 °C | 0.5 °C | 37.5 °C |  |  |  | 870 nM | > 50000 nM | ~2000 nM |
